Legend:
[1] = system: Brassica oleracea var. Italica Parthenon; conditions: in vivo
Method: (§1) In a growth chamber, seeds of the broccoli cultivar (Brassica oleracea var. Italica) Parthenon which grew for 30 days were germinated. Subsequently, they were allowed to grow in a greenhouse for 75 days until the inflorescences reached commercial size. In this case, foliar application of the treatments indicated below was carried out by spraying between 100 and 150 ml per plant: one at the time the flower bud appears and the following applications 5 and 10 days, respectively, after the first application.

[2] = system: Brassica oleracea var. Italica Parthenon; experiment: Greenhouse test: concentration of glucosinolates on leaves and inflorescences after foliar application; type: in vivo
Method: as §1
Control composition: consisting of a solution containing 0.2% by volume of ethanol and 99.8% by volume of water.
Surfactant composition 1 (Triton X-100): consisting of a solution containing 0.1% by volume of Triton X-100 surfactant and 99.9% by volume of water.
Surfactant composition 2 (MPP): consisting of a solution containing 0.1% by volume of the modified polysiloxane polyether surfactant and 99.9% by volume of water.
Elicitor composition (MeJA): consisting of a solution containing 0.0022% by volume of MeJA, 0.2% by volume of ethanol and 99.7978% by volume of water.
Composition 2 (MeJA+Triton X-100): consisting of a solution containing 0.0022% by volume of MeJA, 0.2% by volume of ethanol, 0.1% by volume of Triton X-100 and 99.70% by volume of water.
Composition 1 (MeJA+MPP): A solution was prepared containing 0.0022% by volume of MeJA (for a final concentration of 100 micromolar in the composition), 0.2% by volume of ethanol, 0.1% by volume of polysiloxane polyether and 99.7968% by volume of water.
Subsequently, the plants were harvested and the leaves and inflorescences were frozen in liquid nitrogen and immediately lyophilised to prevent the compounds of interest from degrading until it was time to determine the glucosinolates and metabolites of interest.
The analyses were carried out on the leaf and inflorescence at the time of collecting the commercial size. The method used for extracting glucosinolates was based on the method developed by the research group and currently in the public domain: Dominguez-Perles et al. (2010) Journal of Food Science 75, 383-392. The quantitative analysis was carried out by HPLC-DAD. The lyophilised and ground samples (100 mg) were extracted with 1 ml of 70% MeOH in a hot bath at 70° C. for 30 minutes, stirring every 5 minutes in a vortex, to optimise the extraction. The reaction was then stopped in an ice bath and the samples were centrifuged to precipitate the insoluble material, for 15 minutes, at 10,000 g and at 4° C. The supernatant was collected and the methanol was removed on a rotary evaporator with a thermostatically controlled bath at 38° C. The dry residue obtained was redissolved in ultra-pure water and filtered (00.22 μm of PVDF) for the subsequent analysis thereof.
Each sample (20 μl) was analysed in high-performance liquid chromatography (HPLC) equipped with a pump for binary eluent partitioning, an inline degasser, a photodiode detector autosampler (DAD). The compounds were separated in a C18 column measuring 250×4 mm and with a 0.4 um pore diameter, in reversed phase liquid chromatography (RP-HPLC) mode. The glucosinolates were identified using the methodology already described by the research group and publicly available for multipurpose analysis of intact glucosinolates (Martinez-Sánchez et al. 2006 Postharvest Biol. Technol. 42, 86-97; Dominguez-Perles et al. (2010) Journal of Food Sci. 75, 383-392), based on the retention times of the respective analytical peaks, the maximum absorption spectra thereof in the UV-Vis range and the comparison with commercially available external standards, sinigrin for aliphatic glucosinolates and glucobrassicin for indolic glucosinolates (Baenas et al. (2012) J. Agric. Food Chemistry, 60, 11409-11420). The detection was carried out at 227 nm and the concentration of glucosinolates was expressed in μmol/g of plant tissue dry weight. […]

Drop dispersion = type: physicochemical; conditions: under binoculars (1.6×), FIG. 3
Method: The drop dispersion of Compositions 1 and 2 and that of elicitor Composition (MeJA) was determined under binoculars (1.6×) (FIG. 3).

% of Commercial heads [1]	drop dispersion (Drop dispersion)	Molecule	Total GLS ([2]; INFLORESCENCE)	mg GBS/g DW ([2]; INFLORESCENCE)	mg GRA/g DW ([2]; INFLORESCENCE)	mg NGB/g DW ([2]; INFLORESCENCE)	Total GLS ([2]; LEAF)	mg GBS/g DW ([2]; LEAF)	mg GRA/g DW ([2]; LEAF)	mg NGB/g DW ([2]; LEAF)
81.1%		Triton X-100								
100%	no dispersion is observed	CC/C=C\CC1C(=O)CCC1CC(=O)OC (centres unmarked) [MeJA, methyl jasmonate]	4.97 mg/g DW	2.05 mg/g DW	1.70 mg/g DW	1.22 mg/g DW	1.75 mg/g DW	0.71 mg/g DW	0.35 mg/g DW	0.69 mg/g DW
